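Assay format: 96-well plates, 48-hour exposure. Abbreviation: GI50, concentration required for 50% inhibition of growth.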 Active and inactive are the calls of the source. Rule as the data show it: active = GI50 up to about 1.1 µM and inactive = higher.
Experiments:
Assay in all cases: NCI tumour cell line growth inhibition, 48 h
[1] = system: A549
[2] = system: OVCAR-4
[3] = system: ACHN
[4] = system: SNB-19
[5] = system: CCRF-CEM
[6] = system: NCI/ADR-RES
[7] = system: SF-295
[8] = system: NCI-H522
[9] = system: SK-MEL-2
[10] = system: 786-0
[11] = system: U-251
[12] = system: MCF7
[13] = system: PC-3
[14] = system: IGROV-1
[15] = system: SF-539
[16] = system: NCI-H23
[17] = system: DU-145
[18] = system: OVCAR-8
[19] = system: HT-29

Measured: GI50

CC12CCC(=O)N1c1cncnc1N2 (stereo unspecified)
inactive: [1] > 10 µM | [2] > 10 µM | [3] > 10 µM | [4] > 10 µM | [5] > 10 µM | [6] > 10 µM | [7] > 10 µM | [8] > 10 µM | [9] > 10 µM | [10] > 10 µM | [11] > 10 µM | [12] > 10 µM | [13] > 10 µM | [14] > 10 µM | [15] > 10 µM | [16] > 10 µM | [17] > 10 µM | [18] > 10 µM | [19] > 10 µM

COC(=O)C12C3C4C5(C(=O)OC)C(C1C35C(=O)N(C(C)C)C(C)C)C42C(=O)N(C(C)C)C(C)C (stereo unspecified)
inactive: [1] > 45.9 µM | [2] > 35.6 µM | [3] > 50 µM | [4] > 50 µM | [5] > 50 µM | [7] > 50 µM | [8] > 47.2 µM | [9] > 50 µM | [10] > 50 µM | [11] > 50 µM | [14] > 50 µM | [15] > 50 µM | [16] > 50 µM | [18] > 50 µM | [19] > 50 µM

Cc1cccc2oc3c(CC(=O)O)cccc3c(=O)c12
inactive: [1] > 100 µM | [2] > 100 µM | [3] > 100 µM | [4] > 100 µM | [5] > 100 µM | [6] > 100 µM | [7] > 100 µM | [8] > 100 µM | [9] 5.16 µM | [10] > 100 µM | [11] > 100 µM | [12] > 100 µM | [13] > 100 µM | [14] > 100 µM | [15] > 100 µM | [16] > 100 µM | [17] > 100 µM | [18] > 100 µM | [19] > 100 µM

O=C(Nc1ccc(Cl)cc1)c1cccc([N+](=O)[O-])c1O
inactive: [1] 3.65 µM | [2] 4.07 µM | [3] 2.85 µM | [4] 2.92 µM | [5] 2.06 µM | [7] 3.29 µM | [8] 1.98 µM | [9] 2.02 µM | [10] 3.88 µM | [11] 2.7 µM | [14] 3.03 µM | [15] 4.18 µM | [16] 2.43 µM | [18] 4.39 µM | [19] 4.25 µM

COc1ccc(N2C(=O)c3cc([N+](=O)[O-])cnc3S2(=O)=O)cc1
inactive: [1] > 100 µM | [2] > 100 µM | [3] > 100 µM | [4] > 100 µM | [5] > 100 µM | [6] > 100 µM | [7] > 100 µM | [8] > 100 µM | [9] > 100 µM | [10] > 100 µM | [11] > 100 µM | [13] > 100 µM | [14] > 100 µM | [16] > 100 µM | [17] > 100 µM | [18] > 100 µM | [19] > 100 µM

COC(=O)C(=O)C(C(=O)OC)C(=O)C(=O)Nc1cc(Cl)c(C)cc1S(=O)(=O)O (stereo unspecified)
inactive: [1] > 100 µM | [2] > 100 µM | [3] > 100 µM | [4] > 100 µM | [5] > 100 µM | [7] > 100 µM | [8] > 100 µM | [9] > 100 µM | [10] > 100 µM | [11] > 100 µM | [14] > 100 µM | [15] > 100 µM | [16] > 100 µM | [18] > 100 µM | [19] > 100 µM

COc1cc2c(cc1O)[C@H](C)C(c1ccccc1OC)O2 (stereo partly specified)
inactive: [1] 5.33 µM | [2] 8.32 µM | [3] 4.34 µM | [4] 3.98 µM | [5] 4.21 µM | [7] 3.2 µM | [8] 3.01 µM | [9] 3.05 µM | [10] 5.61 µM | [11] 2.34 µM | [14] 5.24 µM | [15] 5.11 µM | [16] 6.31 µM | [18] 10.3 µM | [19] 6.7 µM

COc1ccc2c(c1)CCN1C3=C(CCC3)C(=O)C[C@@H]21
inactive: [1] > 100 µM | [2] > 100 µM | [3] > 100 µM | [4] > 100 µM | [5] > 100 µM | [7] > 100 µM | [8] > 100 µM | [9] > 100 µM | [10] > 100 µM | [11] > 100 µM | [14] > 100 µM | [15] > 100 µM | [16] > 100 µM | [18] > 100 µM | [19] > 100 µM

CCCNC(=O)Cn1c2c(c3ccccc31)CCCC2
inactive: [1] 53.8 µM | [2] 45.8 µM | [3] 34.9 µM | [4] 36.7 µM | [5] > 100 µM | [6] 50.9 µM | [7] 38.5 µM | [9] > 100 µM | [10] > 100 µM | [12] > 100 µM | [13] 63.8 µM | [14] > 100 µM | [15] 37.1 µM | [16] 72.3 µM | [18] > 100 µM | [19] > 100 µM

C=C1C(C(=O)O)C1C(=O)O (stereo unspecified)
inactive: [1] > 100 µM | [2] > 100 µM | [3] > 100 µM | [4] > 100 µM | [5] > 100 µM | [7] > 100 µM | [8] > 100 µM | [9] > 100 µM | [10] > 100 µM | [11] > 100 µM | [14] > 100 µM | [15] > 100 µM | [16] > 100 µM | [18] > 100 µM | [19] > 100 µM

CNC(=O)CN(CC(N)=O)C(=O)NC
inactive: [1] > 100 µM | [2] > 100 µM | [3] > 100 µM | [4] > 100 µM | [5] > 100 µM | [7] > 100 µM | [8] > 100 µM | [9] > 100 µM | [10] > 100 µM | [11] > 100 µM | [14] > 100 µM | [15] > 100 µM | [16] > 100 µM | [18] > 100 µM | [19] > 100 µM

COCCNC(=O)C1C(=O)C(=O)N(CCOC)C1=O (stereo unspecified)
inactive: [1] > 100 µM | [2] > 100 µM | [3] > 100 µM | [4] > 100 µM | [5] > 100 µM | [7] > 100 µM | [8] > 100 µM | [9] > 100 µM | [10] > 100 µM | [11] > 100 µM | [14] > 100 µM | [15] > 100 µM | [16] > 100 µM | [18] > 100 µM | [19] > 100 µM
